Experimental data published in BindingDB's records for doi:10.7270/Q2K935WV (Nmmlsc, 2008).
Where a name gives a salt, the structure may show the parent alone.

Biological target: Isoform Bcl-X(L) of Bcl-2-like protein 1 (Bcl-xL) (Homo sapiens, UniProt Q07817)
Assay: Bcl-XL binding to Bim peptide disruption – biochemical, multiplexed, bead flow cytometry, human Bcl-XL, dose response (AID 1322)
Details: pH 7.4, 4 °C
[1] = inactive by the depositor's call

Sequence of Isoform Bcl-X(L) of Bcl-2-like protein 1 (Bcl-xL) (Q07817 whole entry G70A, canonical isoform): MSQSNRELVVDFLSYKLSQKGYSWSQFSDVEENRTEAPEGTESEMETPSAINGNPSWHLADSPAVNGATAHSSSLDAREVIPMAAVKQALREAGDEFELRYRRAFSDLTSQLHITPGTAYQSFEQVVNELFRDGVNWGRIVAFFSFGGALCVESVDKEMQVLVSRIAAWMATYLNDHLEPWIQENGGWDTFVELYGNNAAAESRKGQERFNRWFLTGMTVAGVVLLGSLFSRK

Question: CN1CCc2cccc3c2[C@@H]1Cc1ccc(O)c(O)c1-3 was tested. Which EC50 did it give?
Answer: 18.6 µM

Question: Which EC50 [1] does the source give for CCN(CC)c1ccc(-c2nn3c(-c4cccnc4)nnc3s2)cc1 here?
Answer: 7.92 µM

Question: CCOCCCNc1nc(S)nc2cc(OC)c(OC)cc12 was tested. Which EC50 [1] did it give?
Answer: 3.43 µM

Question: With COCCNc1[nH]c(=S)nc2cc(OC)c(OC)cc12 as the molecule, how does the EC50 [1] read?
Answer: 7.43 µM

Question: How did the EC50 [1] turn out when CN1CCN(C2=C(Cl)C(=O)C(c3cnc(N4CCCCC4)s3)=C(Cl)C2=O)CC1 was run?
Answer: 1 µM

Question: Which EC50 [1] does the source give for CCOC(=O)c1ccc(Nc2nc(C(=O)OCC)nc3ccccc23)cc1 here?
Answer: 2.97 µM

Question: For CCOCCCn1c(N)c(C(=O)Nc2sc3c(c2C(=O)OC)CCCC3)c2nc3ccccc3nc21, which EC50 [1] is on record?
Answer: 1.97 µM

Question: For COc1cccc(CN=Nc2nn3cnnc3c3ccccc23)c1O, which EC50 is on record?
Answer: 0.57 µM

Question: CCN1C(=O)/C(=C/C=C2\C=CN(CC)c3ccccc32)SC1=S was tested. Which EC50 [1] did it give?
Answer: 29.5 µM

Question: With Cc1ccc(-c2ccc(/C=C/C(=O)c3ccccc3)o2)cc1 as the molecule, how does the EC50 [1] read?
Answer: 5.19 µM

Question: How did the EC50 turn out when CCC(/C=C1\Sc2ccc(OC)cc2N1CCO)=C\c1sc2ccc(OC)cc2[n+]1CCO was run?
Answer: 19.2 µM

Question: With O=S1(=O)N=C(N(CCO)N=C/C=C/c2ccccc2)c2ccccc21 as the molecule, how does the EC50 [1] read?
Answer: 20 µM

Question: Which EC50 [1] does the source give for COc1ccc(-n2c(=O)c3ccccc3c3ccccc3c2=O)c(OC)c1 here?
Answer: 12.8 µM

Question: CCOC(=O)c1c2c3c(cccc3[nH]c1=O)C(=O)c1ccccc1-2 was tested. Which EC50 [1] did it give?
Answer: 2.12 µM

Question: Which EC50 does the source give for Cc1nc2ncccn2c1-c1csc(Nc2ccc(O)cc2)n1 here?
Answer: 0.39 µM

Question: For COc1cc2nc(=S)n(CCCN3CCOCC3)c(N)c2cc1OC, which EC50 [1] is on record?
Answer: 10.9 µM

Question: For Cc1ccc(C(=O)/C=C/c2ccc(-c3ccc(C)cc3)o2)cc1 [1-p-Tolyl-3-(5-p-tolyl-furan-2-yl)-propenone], which EC50 [1] is on record?
Answer: 2.14 µM

Question: With Cc1cc(OCc2cn3cccnc3n2)ccc1Cl [2-[(4-chloranyl-3-methyl-phenoxy)methyl]imidazo[1,2-a]pyrimidine] as the molecule, how does the EC50 [1] read?
Answer: 17.9 µM

Question: How did the EC50 [1] turn out when O=C(CSc1ccc2nnc(-c3ccccn3)n2n1)Nc1nccs1 [2-[[3-(2-pyridinyl)-[1,2,4]triazolo[4,3-b]pyridazin-6-yl]thio]-N-(2-thiazolyl)acetamide] was run?
Answer: 11.3 µM

Question: Which EC50 [1] does the source give for O=C(/C=C/c1ccccc1Cl)c1ccccc(=O)c1O [3-[(E)-3-(2-chlorophenyl)prop-2-enoyl]-2-oxidanyl-cyclohepta-2,4,6-trien-1-one] here?
Answer: 19.3 µM

Question: How did the EC50 [1] turn out when NC(=O)c1sc2nc3c(c(-c4ccco4)c2c1N)CCC3 [3-amino-4-(2-furyl)-6,7-dihydro-5H-cyclopenta[b]thieno[3,2-e]pyridine-2-carboxamide] was run?
Answer: 3.43 µM

Question: With c1cncc(-c2nnc3n2N=C(c2cccs2)CS3)c1 [3-pyridin-3-yl-6-thiophen-2-yl-7H-[1,2,4]triazolo[3,4-b][1,3,4]thiadiazine] as the molecule, how does the EC50 [1] read?
Answer: 7.17 µM

Question: Which EC50 [1] does the source give for Cc1nc2ncccn2c1-c1csc(Nc2ccccc2)n1 [4-(2-methyl-3-imidazo[1,2-a]pyrimidinyl)-N-phenyl-2-thiazolamine] here?
Answer: 10.1 µM

Question: For Cc1cc(C)nc(SCc2cc(=O)c(OC(=O)c3ccc(Cl)c([N+](=O)[O-])c3)co2)n1 [4-chloro-3-nitrobenzoic acid [6-[[(4,6-dimethyl-2-pyrimidinyl)thio]methyl]-4-oxo-3-pyranyl] ester], which EC50 [1] is on record?
Answer: 5.09 µM

Question: O=C(N[N-][CH+]c1ccc(-c2ccccc2[N+](=O)[O-])o1)c1cncc(Br)c1 [5-bromo-N-[[5-(2-nitrophenyl)furan-2-yl]methylideneamino]pyridine-3-carboxamide] was tested. Which EC50 [1] did it give?
Answer: 28.3 µM

Question: For COc1cc2nc(=S)[nH]c(NCC3CCCO3)c2cc1OC (stereo unspecified) [6,7-dimethoxy-4-(2-oxolanylmethylamino)-1H-quinazoline-2-thione], which EC50 [1] is on record?
Answer: 4.65 µM

Question: CCOc1ccccc1-n1c(=O)c2ccccc2c2ccccc2c1=O [6-(2-ethoxyphenyl)-5H-dibenzo[c,e]azepine-5,7(6H)-dione] was tested. Which EC50 [1] did it give?
Answer: 26.5 µM

Question: With COc1ccc(C2=Nn3c(nnc3-c3ccco3)SC2)cc1OC [6-(3,4-Dimethoxy-phenyl)-3-furan-2-yl-7H-[1,2,4]triazolo[3,4-b][1,3,4]thiadiazine] as the molecule, how does the EC50 [1] read?
Answer: 2.85 µM

Question: With CCOc1ccc(C2=Nn3c(nnc3-c3ccccn3)SC2)cc1 [6-(4-ethoxyphenyl)-3-(2-pyridinyl)-7H-[1,2,4]triazolo[3,4-b][1,3,4]thiadiazine] as the molecule, how does the EC50 [1] read?
Answer: 14.3 µM

Question: With O=c1nc2c(O)cccn2c2c1c(O)nc1ccccc12 [9-Hydroxy-5H-5,8,12a-triaza-benzo[c]phenanthrene-6,7-dione] as the molecule, how does the EC50 [1] read?
Answer: 13.7 µM

Question: With CN(N=C/C=C/c1ccccc1)C1=NS(=O)(=O)c2ccccc21 [(1E,2E)-3-phenylacrylaldehyde (1,1-dioxido-1,2-benzisothiazol-3-yl)(methyl)hydrazone] as the molecule, how does the EC50 [1] read?
Answer: 2.82 µM

Question: Which EC50 [1] does the source give for COc1cc(/C=C2\CC/C(=C\c3cc(OC)c(O)c(OC)c3)C2=O)cc(OC)c1O [(2E,5E)-2,5-bis[(4-hydroxy-3,5-dimethoxyphenyl)methylidene]cyclopentan-1-one] here?
Answer: 3.02 µM

Question: Which EC50 does the source give for COc1cc(CN=Nc2nn3cnnc3c3ccccc23)ccc1O [(4E)-2-methoxy-4-[[2-([1,2,4]triazolo[3,4-a]phthalazin-6-yl)hydrazinyl]methylidene]cyclohexa-2,5-dien-1-one] here?
Answer: 2.43 µM

Question: How did the EC50 [1] turn out when O=C1/C(=C\c2ccc(-c3ccccc3Cl)o2)SC(=S)N1CC1CCCO1 (stereo unspecified) [(5E)-5-[[5-(2-chlorophenyl)furan-2-yl]methylidene]-3-(oxolan-2-ylmethyl)-2-sulfanylidene-1,3-thiazolidin-4-one] was run?
Answer: 1.55 µM

Question: With Cc1ccc(-c2ccc(/C=C3\SC(N4CCOCC4)=NC3=O)o2)cc1 [(5Z)-5-[[5-(4-methylphenyl)-2-furanyl]methylidene]-2-(4-morpholinyl)-4-thiazolone] as the molecule, how does the EC50 [1] read?
Answer: 78.6 µM

Question: With O=C(/C=C\c1ccc(-c2ccccc2)o1)c1ccccc1 [(Z)-1-phenyl-3-(5-phenyl-2-furanyl)-2-propen-1-one] as the molecule, how does the EC50 read?
Answer: 9.36 µM

Question: How did the EC50 turn out when CN1CCc2cccc3c2[C@H]1Cc1ccc(O)c(O)c1-3 [APOMORPHINE HYDROCHLORIDE] was run?
Answer: 18.9 µM

Question: O=C1c2ccccc2-c2onc3ccc(NCc4ccco4)c1c23 [MLS000080234] was tested. Which EC50 [1] did it give?
Answer: 10.2 µM

Question: Cc1cc(-c2nnc3n2N=C(c2ccc(-c4ccccc4)cc2)CS3)[nH]n1 [MLS000082991] was tested. Which EC50 [1] did it give?
Answer: 11.7 µM

Question: With Cc1cc2n(c1)CCn1c(C)ccc1-2 [MLS000104384] as the molecule, how does the EC50 [1] read?
Answer: 26.5 µM

Question: How did the EC50 [1] turn out when CCCCNC(=O)c1ccc2nc(-c3ccco3)c(-c3ccco3)nc2c1 [MLS000119995] was run?
Answer: 25.3 µM

Question: Clc1nc(NCc2cccnc2)nc(N2CCOCC2)n1 [MLS000121154] was tested. Which EC50 [1] did it give?
Answer: 18.1 µM

Question: How did the EC50 turn out when CCCCNc1[nH]c(=S)nc2cc(OC)c(OC)cc12 [MLS000520261] was run?
Answer: 3.81 µM

Question: COCCCn1c(N)c(C(=O)Nc2sc3c(c2C(=O)OC)CCCC3)c2nc3ccccc3nc21 [MLS000595323] was tested. Which EC50 [1] did it give?
Answer: 3.32 µM

Question: With COc1cc2nc(=S)[nH]c(NCCc3ccc(S(N)(=O)=O)cc3)c2cc1OC [MLS000674601] as the molecule, how does the EC50 [1] read?
Answer: 0.51 µM

Question: How did the EC50 [1] turn out when COc1ccc(C)cc1-n1c(=O)c2ccccc2c2ccccc2c1=O [MLS000682999] was run?
Answer: 18.7 µM

Question: For Cc1ccnc(SCc2cc(=O)c(OC(=O)c3ccc(Cl)c([N+](=O)[O-])c3)co2)n1 [MLS000696790], which EC50 [1] is on record?
Answer: 19.6 µM

Question: OCCN1CCN(CCCc2c3c(cc4c2CCC4)CCC3)CC1 [MLS000698424] was tested. Which EC50 did it give?
Answer: 16.1 µM

Question: Which EC50 [1] does the source give for CCOC(=O)c1c(O)nc2ccc(Cl)c3c2c1-c1ccccc1C3=O [MLS000704595] here?
Answer: 5.86 µM

Question: Which EC50 [1] does the source give for Cc1ccc(OCc2cn3cccnc3n2)cc1 [MLS000723172] here?
Answer: 46.1 µM

Question: For COc1cccc2c(SCC(=O)NN=Cc3ccc(O)cc3O)cc(C)nc12 [N'-[(E)-(2-hydroxy-4-oxo-1-cyclohexa-2,5-dienylidene)methyl]-2-[(8-methoxy-2-methyl-4-quinolinyl)thio]acetohydrazide], which EC50 is on record?
Answer: 83.6 µM

Question: With c1ccc(Nc2cccc(Nc3ccccc3)n2)cc1 [N,N'-diphenyl-2,6-pyridinediamine] as the molecule, how does the EC50 [1] read?
Answer: 6.98 µM

Question: COc1cc(C=NNC(=O)CN(Cc2ccco2)S(=O)(=O)c2ccccc2)ccc1O [N-(2-furanylmethyl)-N-[2-[[(E)-(3-methoxy-4-oxo-1-cyclohexa-2,5-dienylidene)methyl]hydrazo]-2-oxoethyl]benzenesulfonamide] was tested. Which EC50 did it give?
Answer: 18.4 µM

Question: With CC(=O)c1ccc(NC(=O)c2ccc3nc(-c4ccco4)c(-c4ccco4)nc3c2)cc1 [N-(4-acetylphenyl)-2,3-di-2-furyl-6-quinoxalinecarboxamide] as the molecule, how does the EC50 [1] read?
Answer: 23.1 µM

Question: With COc1cccc(CN=Nc2nn3cnnc3c3ccccc23)c1 [N-[1-(3-Methoxy-phenyl)-meth-(E)-ylidene]-N'-[1,2,4]triazolo[3,4-a]phthalazin-6-yl-hydrazine] as the molecule, how does the EC50 read?
Answer: 2.04 µM

Question: With COc1ccc(CCNC(=O)c2ccc3nc(-c4ccco4)c(-c4ccco4)nc3c2)cc1OC [N-[2-(3,4-dimethoxyphenyl)ethyl]-2,3-di-2-furylquinoxaline-6-carboxamide] as the molecule, how does the EC50 [1] read?
Answer: 20.7 µM

Question: With Cc1cccc(C(=O)/N=c2\c(C#N)cc3c(=O)n4cccc(C)c4nc3n2Cc2ccco2)c1 [N-[3-cyano-1-(furan-2-ylmethyl)-10-methyl-5-oxodipyrido[3,4-c:1',2'-f]pyrimidin-2-ylidene]-3-methylbenzamide] as the molecule, how does the EC50 [1] read?
Answer: 50.4 µM

Question: For COCCCNc1nc(S)nc2cc(OC)c(OC)cc12 [SMR000026607], which EC50 [1] is on record?
Answer: 3.65 µM

Question: For O=C1c2ccccc2-c2onc3ccc(NCCCn4ccnc4)c1c23 [SMR000044769], which EC50 is on record?
Answer: 1.14 µM

Question: For CSc1nnc2c3cc(C)ccc3n(Cc3ccccc3)c2n1 [SMR000046397], which EC50 [1] is on record?
Answer: 20.6 µM

Question: c1ccc(-c2nc(N3CCCCCC3)c3ccccc3n2)nc1 [SMR000046752] was tested. Which EC50 [1] did it give?
Answer: 21.9 µM

Question: For C#CCn1cc(C=C2C(=O)c3ccccc3C2=O)c2ccccc21 [SMR000196125], which EC50 [1] is on record?
Answer: 11.7 µM

Question: For CN(N=Cc1cccnc1)C1=NS(=O)(=O)c2ccccc21 [SMR000207578], which EC50 [1] is on record?
Answer: 19.2 µM

Question: Which EC50 does the source give for Clc1nc2ccccc2cc1CN=Nc1nc2ccccc2[nH]1 [SMR000221568] here?
Answer: 49.7 µM

Question: COc1ccc(OC)c(-n2c(=O)c3ccccc3c3ccccc3c2=O)c1 [SMR000236434] was tested. Which EC50 [1] did it give?
Answer: 17.6 µM

Question: How did the EC50 turn out when Nc1c(C(=O)NCC2CCCO2)sc2nc3c(c(-c4ccco4)c12)CC/C3=C\c1ccco1 (stereo unspecified) [SMR000259502] was run?
Answer: 6.11 µM

Question: For Nc1c(C(=O)NC2CC2)sc2nc3c(c(-c4ccco4)c12)CC/C3=C/c1ccco1 [SMR000259554], which EC50 is on record?
Answer: 9.01 µM

Question: With O=C1c2ccccc2-c2onc3ccc(N4CCCC4)c1c23 [SMR000279741] as the molecule, how does the EC50 [1] read?
Answer: 13.1 µM

Question: For O=C(CSc1ccc2nnc(-c3ccncc3)n2n1)Nc1nccs1 [SMR000320332], which EC50 [1] is on record?
Answer: 22.2 µM

Question: How did the EC50 turn out when Cc1nnc2ccc(-c3cccc(NC(=O)c4ccco4)c3)nn12 [SMR000324305] was run?
Answer: 5.17 µM

Question: O=C(Nc1cccc(Cl)c1)Nc1ccnc(-c2cccnc2)n1 [SMR000337179] was tested. Which EC50 [1] did it give?
Answer: 1.14 µM
